Source: US10597375B2, “Halogen-substituted heterocyclic compound” (UBE INDUSTRIES, LTD., priority 2012, dated 2020)

What was measured:
[1] = molecular target: T1, human LPA1 receptor (Homo sapiens, UniProt Q92633); assay: Binding test of GTPγS to LPA1 receptor; type: biochemical; conditions: membrane fraction of RH 7777 cells expressed with human LPA1 receptor; LPA 100 nM; read-out: IC50: concentration of the test compound which inhibits the binding of LPA1 receptor and [35S]GTPγS by 50%
T1 construct: purchased ChanTest A324; host or cells: RH 7777 cells (recombinant expression; membrane fraction)
T1 sequence (Q92633 whole entry): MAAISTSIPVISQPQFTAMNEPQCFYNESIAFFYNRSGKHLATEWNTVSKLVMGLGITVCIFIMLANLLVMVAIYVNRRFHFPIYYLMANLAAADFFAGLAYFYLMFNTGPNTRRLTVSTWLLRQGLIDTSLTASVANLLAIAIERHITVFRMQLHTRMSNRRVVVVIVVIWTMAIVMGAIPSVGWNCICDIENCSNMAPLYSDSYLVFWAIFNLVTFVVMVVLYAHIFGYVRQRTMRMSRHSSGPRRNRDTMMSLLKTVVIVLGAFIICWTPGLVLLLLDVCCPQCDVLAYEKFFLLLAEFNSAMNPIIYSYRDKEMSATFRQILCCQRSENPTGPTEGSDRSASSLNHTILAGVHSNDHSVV
Description: Binding test of GTPγS to LPA1 receptor
5 μg of the membrane fraction of RH 7777 cells expressed with human LPA1 receptor (A324, ChanTest) was suspended in a reaction buffer (20 mM HEPES, 100 mM NaCl, 10 mM MgCl2, 10 μM GDP, 5 μg saponin, 0.2% BSA, 0.1 nM [^35S]GTPγS (NEG030X, Perkin Elmer), pH 7.4), and the test compound dissolved in DMSO in various concentrations was added. After preincubation at 30° C. for 15 minutes, LPA (L7260, Sigma, the final concentration of 100 nM) was added, and the suspension was incubated at 30° C. for 30 minutes. The membrane fraction was collected onto a glass fiber filter (GF/B, Whatman) by using a cell harvester (M30, Brandel), and washed with a 10 mM phosphate buffer (pH 7.4). The radioactivity of the membrane fraction was measured using a liquid scintillation analyzer (2900TR, Packard) and the concentration of the test compound which inhibits the binding of LPA1 receptor and [^35S]GTPγS by 50%, (1050) was determined by non-linear regression analysis using EXSAS (version 7.6.0, Arm Systex).

[2] = test system: A2058 human melanoma cells; assay: Cell migration test (LPA-induced, Chemo-Tx); type: cell-based; conditions: LPA 100 nM, 3 hours, read-out: IC50: concentration of the test compound which inhibits the cell migration activity of LPA by 50%
Description: The cell migration test was carried out using Chemo-Tx (registered trademark) (116-8, Neuro Probe). A2058 human melanoma cells (obtained from European Collection of Cell Culture) were cultured in a serum-free EMEM medium for 24 hours, and then re-suspended in a 0.1% BSA-containing DMEM medium to obtain a cell suspension. The test compound dissolved in DMSO in various concentration was each added to the cell suspension, and the suspension was cultured at 37° C. for 15 minutes (the final DMSO concentration of 0.5%). LPA dissolved in a 0.1% BSA-containing DMEM medium (the final concentration of 100 nM) was added to Chemo-Tx 96 well plate, and a Chemo-Tx filter which had been coated with 0.001% Fibronectin on the both surfaces was put on the plate. The suspension of cultured cells (25,000 cells) was added onto the upper surface of the filter and further cultured at 37° C. for 3 hours, and the cells on the upper surface of the filter were removed. After the filter was removed and dried, the cells which had migrated to the lower surface of the filter were stained using Diff-Quik stain (16920, Sysmex). The absorbance of the filter (570 nm) was measured and the concentration of the test compound which inhibits the cell migration activity of LPA by 50%, (1050) was determined by non-linear regression analysis using EXSAS (version 7.6.0, Arm Systex).

[3] = test system: LPA-induced histamine release; assay: LPA-induced histamine release test in mouse; type: in vivo; conditions: male CD1 mice; oral dose of 10 mg/kg; LPA 300 μg/mouse via tail vein 4 hours after administration; blood 2 minutes after LPA; read-out: efficacy rate (rate of individuals which showed the inhibition rate of 80% or more of plasma histamine)
Description: LPA-Induced Histamine Release Test in Mouse
LPA-induced histamine release test in mouse was carried out according to a method by Swaney et al. (The Journal of Pharmacology and Experimental Therapeutics, 336 (2011), pages 693-700). The test compound was suspended in 0.5% methylcellulose solution (133-14255, Wako), and orally administered to male CD1 mice (body weight: 30 to 40 g, supplied by Charles River Laboratories Japan) at a dose of 10 mL/kg. 4 hours after administration, LPA (857130P, Avanti) dissolved in a 0.1% BSA-containing PBS was administered via the tail vein (300 μg/mouse). Immediately, the mouse was anesthetized with isoflurane, and blood was collected via a vein 2 minutes after the administration of LPA. The blood was put into a test tube containing EDTA, and centrifuged at 4° C., 2,000×g, for 10 minutes to obtain the plasma.
The histamine concentration in the plasma was measured by EIA kit (62HTMPEB, Cisbio Bioassays).

Row | SMILES | IC50 [1] | IC50 [2] | responders at 10 mg/kg [3]
1 | CC(OC(=O)Nc1cc(Br)sc1-c1ccc(-c2ccc(C3(C(=O)O)CC3)cc2)cc1)c1ccccc1Cl (racemic) [I-11, (RS)-1-{4′-[5-Bromo-3-({[1-(2-chlorophenyl)ethoxy]carbonyl}amino)thiophen-2-yl]-[1,1′-biphenyl]-4-yl}cyclopropanecarboxylic acid] | ≤ 200 nM | – | –
2 | CC(OC(=O)Nc1cc(Cl)sc1-c1ccc(-c2ccc(C3(C(=O)O)CC3)cc2)cc1)c1ccccc1Cl (racemic) [I-51, (RS)-1-{4′-[5-Chloro-3-({[1-(2-chlorophenyl)ethoxy]carbonyl}amino)thiophen-2-yl]-[1,1′-biphenyl]-4-yl}cyclopropanecarboxylic acid] | ≤ 200 nM | ≤ 200 nM | –
3 | C[C@@H](OC(=O)Nc1cc(Cl)sc1-c1ccc(-c2ccc(C3(C(=O)O)CC3)cc2)cc1)c1ccccc1 [I-24, (R)-1-[4′-(5-Chloro-3-{[(1-phenylethoxy)carbonyl]amino}thiophen-2-yl)-[1,1′-biphenyl]-4-yl]cyclopropanecarboxylic acid] | ≤ 200 nM | ≤ 200 nM | ≥ 50%
4 | C[C@@H](OC(=O)Nc1cc(Cl)sc1-c1ccc(-c2ccc(C3(C(=O)O)CC3)cc2)cc1)c1ccccc1F [I-28, (R)-1-{4′-[5-Chloro-3-({[1-(2-fluorophenyl)ethoxy]carbonyl}amino)thiophen-2-yl]-[1,1′-biphenyl]-4-yl}cyclopropanecarboxylic acid] | ≤ 200 nM | ≤ 200 nM | ≥ 50%
5 | C[C@@H](OC(=O)Nc1cc(Cl)sc1-c1ccc(-c2ccc(C3(C(=O)O)CC3)cc2)cc1)c1cccc(F)c1 [I-38, (R)-1-{4′-[5-Chloro-3-({[1-(3-fluorophenyl)ethoxy]carbonyl}amino)thiophen-2-yl]-[1,1′-biphenyl]-4-yl}cyclopropanecarboxylic acid] | ≤ 200 nM | ≤ 200 nM | ≥ 50%
6 | C[C@@H](OC(=O)Nc1cc(Cl)sc1-c1ccc(-c2ccc(C3(C(=O)O)CC3)cc2)cc1)c1ccc(F)cc1 [I-42, (R)-1-{4′-[5-Chloro-3-({[1-(4-fluorophenyl)ethoxy]carbonyl}amino)thiophen-2-yl]-[1,1′-biphenyl]-4-yl}cyclopropanecarboxylic acid] | ≤ 200 nM | ≤ 200 nM | ≥ 50%
7 | C[C@@H](OC(=O)Nc1cc(Cl)sc1-c1ccc(-c2ccc(C3(C(=O)O)CC3)cc2)cc1)c1ccccc1Cl [I-52, (R)-1-{4′-[5-Chloro-3-({[1-(2-chlorophenyl)ethoxy]carbonyl}amino)thiophen-2-yl]-[1,1′-biphenyl]-4-yl}cyclopropanecarboxylic acid] | ≤ 200 nM | ≤ 200 nM | ≥ 50%
8 | C[C@@H](OC(=O)Nc1cc(Cl)sc1-c1ccc(-c2ccc(C3(C(=O)O)CC3)cc2)cc1)c1ccc(Cl)cc1 [I-56, (R)-1-{4′-[5-Chloro-3-({[1-(4-chlorophenyl)ethoxy]carbonyl}amino)thiophen-2-yl]-[1,1′-biphenyl]-4-yl}cyclopropanecarboxylic acid] | ≤ 200 nM | ≤ 200 nM | ≥ 50%
9 | Cc1ccccc1[C@@H](C)OC(=O)Nc1cc(Cl)sc1-c1ccc(-c2ccc(C3(C(=O)O)CC3)cc2)cc1 [I-60, (R)-1-{4′-[5-Chloro-3-({[1-(o-tolyl)ethoxy]carbonyl}amino)thiophen-2-yl]-[1,1′-biphenyl]-4-yl}cyclopropanecarboxylic acid] | ≤ 200 nM | ≤ 200 nM | ≥ 50%
10 | C[C@@H](OC(=O)Nc1cc(Cl)sc1-c1ccc(-c2ccc(C3(C(=O)O)CC3)cc2)cc1)c1ccc(F)cc1Cl [I-76, (R)-1-{4′-[5-Chloro-3-({[1-(2-chloro-4-fluorophenyl)ethoxy]carbonyl}amino)thiophen-2-yl]-[1,1′-biphenyl]-4-yl}cyclopropanecarboxylic acid] | ≤ 200 nM | ≤ 200 nM | –
11 | C[C@@H](OC(=O)Nc1cc(F)sc1-c1ccc(-c2ccc(C3(C(=O)O)CC3)cc2)cc1)c1ccc(F)cc1F [I-140, (R)-1-{4′-[3-({[1-(2,4-Difluorophenyl)ethoxy]carbonyl}amino)-5-fluorothiophen-2-yl]-[1,1′-biphenyl]-4-yl}cyclopropanecarboxylic acid] | ≤ 200 nM | ≤ 200 nM | –
12 | COc1cc(-c2sc(F)cc2NC(=O)O[C@H](C)c2ccccc2Cl)ccc1-c1ccc(C2(C(=O)O)CC2)cc1 [I-442, (R)-1-{4′-[3-({[1-(2-Chlorophenyl)ethoxy]carbonyl}amino)-5-fluorothiophen-2-yl]-2′-methoxy-[1,1′-biphenyl]-4-yl}cyclopropanecarboxylic acid] | – | ≤ 200 nM | ≥ 50%
13 | COc1cc(-c2sc(F)cc2NC(=O)O[C@H](C)c2ccccc2C)ccc1-c1ccc(C2(C(=O)O)CC2)cc1 [I-450, (R)-1-{4′-[5-Fluoro-3-({[1-(o-tolyl)ethoxy]carbonyl}amino)thiophen-2-yl]-2′-methoxy-[1,1′-biphenyl]-4-yl}cyclopropanecarboxylic acid] | – | ≤ 200 nM | ≥ 50%
14 | COc1cc(-c2sc(F)cc2NC(=O)O[C@H](C)c2cc(F)ccc2F)ccc1-c1ccc(C2(C(=O)O)CC2)cc1 [I-458, (R)-1-{4′-[3-({[1-(2,5-Difluorophenyl)ethoxy]carbonyl}amino)-5-fluorothiophen-2-yl]-2′-methoxy-[1,1′-biphenyl]-4-yl}cyclopropanecarboxylic acid] | – | ≤ 200 nM | ≥ 50%
15 | C[C@@H](OC(=O)Nc1cc(Cl)sc1-c1ccc(-c2ccc(C3(C(=O)O)CC3)cc2)cc1)c1ccsc1 [I-596, (R)-1-{4′-[5-Chloro-3-({[1-(thiophen-3-yl)ethoxy]carbonyl}amino)thiophen-2-yl]-[1,1′-biphenyl]-4-yl}cyclopropanecarboxylic acid] | – | ≤ 200 nM | ≥ 50%
16 | Cc1cscc1[C@@H](C)OC(=O)Nc1cc(Cl)sc1-c1ccc(-c2ccc(C3(C(=O)O)CC3)cc2)cc1 [I-606, (R)-1-{4′-[5-Chloro-3-({[1-(4-methylthiophen-3-yl)ethoxy]carbonyl}amino)thiophen-2-yl]-[1,1′-biphenyl]-4-yl}cyclopropanecarboxylic acid] | – | ≤ 200 nM | ≥ 50%
17 | C[C@@H](OC(=O)Nc1cc(F)sc1-c1ccc(-c2ccc(C3(C(=O)O)CC3)cc2)cc1)c1ccsc1 [I-640, (R)-1-{4′-[5-Fluoro-3-({[1-(thiophen-3-yl)ethoxy]carbonyl}amino)thiophen-2-yl]-[1,1′-biphenyl]-4-yl}cyclopropanecarboxylic acid] | – | ≤ 200 nM | ≥ 50%
18 | Cc1cscc1[C@@H](C)OC(=O)Nc1cc(F)sc1-c1ccc(-c2ccc(C3(C(=O)O)CC3)cc2)cc1 [I-650, (R)-1-{4′-[5-Fluoro-3-({[1-(4-methylthiophen-3-yl)ethoxy]carbonyl}amino)thiophen-2-yl]-[1,1′-biphenyl]-4-yl}cyclopropanecarboxylic acid] | – | ≤ 200 nM | ≥ 50%
19 | COc1cc(-c2sc(Cl)cc2NC(=O)O[C@H](C)c2ccsc2)ccc1-c1ccc(C2(C(=O)O)CC2)cc1 [I-780, (R)-1-{4′-[5-Chloro-3-({[1-(thiophen-3-yl)ethoxy]carbonyl}amino)thiophen-2-yl]-2′-methoxy-[1,1′-biphenyl]-4-yl}cyclopropanecarboxylic acid] | – | ≤ 200 nM | ≥ 50%
